Measured values: article PMC11152574, “A parameterized two-domain thermodynamic model explains diverse mutational effects on protein allostery” (eLife, 2024)

Molecular target: TetR(B) (Escherichia coli, UniProt P04483)
Assay: GFP reporter induction in E. coli, Bayesian fit of two-domain thermodynamic model
Format: cell-based
Details: 37 °C; LB culture; apparent Kd inferred from in vivo induction curve, K of active LBD set to 1 nM; order-of-magnitude model estimate, not a direct binding measurement; unreliable
Experimental: GFP reporter induction in E. coli, Bayesian fit of two-domain thermodynamic model on TetR(B) | apparent dissociation constant of WT TetR to ligand is calculated as […]

TetR(B), sequence (P04483 whole entry, looked up): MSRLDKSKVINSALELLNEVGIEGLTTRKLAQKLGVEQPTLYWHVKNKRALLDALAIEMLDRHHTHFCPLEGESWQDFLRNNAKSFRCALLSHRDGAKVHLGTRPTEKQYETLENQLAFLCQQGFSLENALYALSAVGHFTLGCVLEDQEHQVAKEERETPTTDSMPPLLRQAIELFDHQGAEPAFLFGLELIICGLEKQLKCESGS

Cc1c2c(c(O)c3c(O)cccc13)C(=O)[C@]1(O)C(=O)C(C(N)=O)=C(O)[C@@H](N(C)C)[C@@H]1C2 [anhydrotetracycline]
K apparent WT: 27.1 nM
